Paper PMC11428279, “Exploring Structure–Activity Relationships and Modes of Action of Laterocidine” (ACS Central Science, 2024)
In brackets after ≈: the same amount, converted by molar mass. Where two headings read alike, the source gives them in different places. Blank lines part the entries; values can stand above or below the compound they belong to. Bridge positions count the residues as written; N and C are the ends. Square brackets hold non-standard residues; d marks the D form. Peptide text beside a SMILES is read from it. * marks the point of attachment. dOrn = NCCC[C@@H](N)C(=O)O; Nonanoyl = CCCCCCCCC(=O)*; X2 = O=C(c1ccc(Cl)cc1Cl)*; Orn = NCCC[C@H](N)C(=O)O

Columns and labels:
[1] = system: Gram-negative strains of P. aeruginosa, A. baumannii, K. pneumoniae, and E. cloacae; format: cell-based
Procedure: (§1) MICs for laterocidine and its various analogues were determined by broth microdilution[49] for the following polymyxin-susceptible ATCC and clinical isolates: P. aeruginosa FADDI-PA022, FADDI-PA001, FADDI-PA025, FADDI-PA070, FADDI-PA060; A. baumannii FADDI-AB134, FADDI-AB034, FADDI-AB030, FADDI-AB174, FADDI-AB241; K. pneumoniae FADDI-KP032, FADDI-KP022, BM1, FADDI-KP065, FADDI-KP064, FADDI-KP003; and E. cloacae FADDI-EC001, FADDI-EC003, and FADDI-EC006. Experiments were performed with cation-adjusted Mueller–Hinton broth (CAMHB) in 96-well polystyrene microtiter plates. Wells were inoculated with 100 μL of bacterial suspension prepared in CAMHB (containing ∼10^6 CFU/mL) and 100 μL of CAMHB containing increasing concentrations of polymyxins (0–32 μg/mL). MIC measurements were performed in duplicate, with the MIC being the lowest concentration at which visible growth was inhibited following 18–20 h of incubation at 37 °C. Bacterial killing kinetics was investigated over 24 h as described previously.[50]

P. aeruginosa PAO1 [2] = test: MIC; format: cell-based; settings: polymyxin-susceptible reference strain
P. aeruginosa PAO1R [3] = test: MIC; format: cell-based; settings: polymyxin-resistant paired strain of PAO1
[4] = system: A. baumannii 5075 (wild type); test: MIC; format: cell-based
A. baumannii 5075R = format: cell-based; settings: lipid A modified with phosphoethanolamine
A. baumannii 5075D = format: cell-based; settings: lacks lipid A in the outer membrane
P. aeruginosa PAO1R [5] = test: Static time-kill study; format: cell-based; settings: 8 × MIC, over 24 h
Procedure: as §1

P. aeruginosa PAO1 [6] = test: Static time-kill study; format: cell-based; settings: 8 × MIC, over 24 h
Procedure: as §1

female Swiss mice = test: Acute toxicity in mice (maximum tolerable dose); format: in vivo; settings: intravenous bolus via lateral tail vein, free base, N = 3
Procedure: (§2) All animal studies were approved by the Monash University Animal Ethics Committee and involved female Swiss mice (22–28 g, 7-week-old) housed in microisolators within a PC2 animal laboratory. Mice were kept under a 12/12 h dark/light cycle at 20–24 °C and 50–70% ambient humidity.
For the acute toxicity studies, peptide 11 and laterocidine solutions were prepared in 0.9% saline and stored at 4 °C before use. All mice were administered an intravenous bolus of one peptide (mg/kg free base) via a lateral tail vein (≤0.1 mL). Following the injection, mice were released back into their respective home cages and individually monitored for 24 h for signs of clinical toxicity. Mice displaying any signs of toxicity were humanely euthanized according to the recommended Euthanasia/Humane Experimental End point Criteria.

[7] = system: P. aeruginosa FADDI-PA070; test: Neutropenic murine bloodstream infection model; format: in vivo, P. aeruginosa in mice; settings: for Bacteria load in blood: 8 mg/kg iv (free base) 2 h postinoculation, neutropenic mice, 4 h time point, N = 3, mean
Procedure: as §2
The neutropenic bloodstream infection model was undertaken as previously described.[39] Mice were rendered neutropenic through intraperitoneal injections of cyclophosphamide administered 4 days (150 mg/kg) and 1 day (100 mg/kg) prior to inoculation. Bloodstream infection was established by administering a 50 μL bolus of early log-phase bacterial suspension (4 × 10^8 CFU/mL). Laterocidine, peptide 11, and polymyxin B solutions were prepared in sterile saline at a concentration of 1 mg/mL (free base). Two hours postinoculation, mice (n = 3) were injected intravenously with either polymyxin B at 4 mg/kg (free base), peptide 11 at 8 mg/kg (free base), laterocidine at 8 mg/kg (free base), or saline (control mice). Blood was collected immediately after (0 h) and 4 h after drug administration, serially diluted with sterile saline, and appropriately diluted samples manually plated on nutrient agar prior to overnight incubation at 37 °C. Colonies were counted manually and the bacterial load (log10 CFU/mL) in the blood of each mouse calculated. In vivo efficacy was calculated as the difference between the log10 CFU/mL blood values of treated and control mice 4 h postdosing (Δlog10 CFU/mL blood = log10 [treated] CFU/mL blood–log10[control] CFU/mL blood).[54]

A. baumannii = format: cell-based; settings: for fold increase in MIC (loss of activity) against A. baumannii: compared with native laterocidine
Procedure: as §1

P. aeruginosa = format: cell-based; settings: compared with native laterocidine
Procedure: as §1

E. cloacae = format: cell-based; settings: compared with native laterocidine
Procedure: as §1

K. pneumoniae = format: cell-based
Procedure: as §1

[8] = system: human kidney proximal tubular (HK-2) cells; test: Viability of human kidney proximal tubular cells; format: cell-based; settings: 24 h of treatment, fluorescence microscopy, mean ± SD, n = 3
Description: The fluorescence microscopy method used to culture HK-2 cells and the use of fluorescence microscopy to determine the percent cell viability (%) following peptide treatment are the same as published previously.[59],[60]

Compound: CCCCCCCCC(=O)N[C@H](CO)C(=O)N[C@H](Cc1ccc(O)cc1)C(=O)N[C@H](Cc1c[nH]c2ccccc12)C(=O)N[C@H](CCCN)C(=O)N[C@@H](CCCN)C(=O)NCC(=O)N[C@H](CCCN)C(=O)N[C@@H](Cc1c[nH]c2ccccc12)C(=O)N[C@@H]1C(=O)N[C@@H]([C@@H](C)CC)C(=O)N[C@@H](CC(N)=O)C(=O)NCC(=O)NCC(=O)O[C@@H]1C [Peptide 11] (Nonanoyl-[dS][dY][dW][dOrn][Orn]G[dOrn]WTINGG; ester 9-C)
MICs against all tested strains (range) ([1]; all tested Gram-negative strains): identical MICs to laterocidine
MIC, P. aeruginosa PAO1 (P. aeruginosa PAO1 [2]): 2 µg/mL (≈ 1.25 µM)
MIC, P. aeruginosa PAO1R (P. aeruginosa PAO1R [3]): 2 µg/mL (≈ 1.25 µM)
MIC, A. baumannii 5075 S [4]: 8 µg/mL (≈ 4.98 µM)
MIC, A. baumannii 5075 R (A. baumannii 5075R): 32 µg/mL (≈ 19.9 µM)
MIC, A. baumannii 5075 D (A. baumannii 5075D): 32 µg/mL (≈ 19.9 µM)
time-kill outcome against P. aeruginosa PAO1R (P. aeruginosa PAO1R [5]): completely inhibiting the growth
time-kill outcome against P. aeruginosa PAO1R (P. aeruginosa PAO1R [5]; listed as peptide 11): no viable bacteria were detected at 24 h
time-kill outcome against P. aeruginosa PAO1 (P. aeruginosa PAO1 [6]): substantial bacterial regrowth nevertheless occurred at all concentrations
maximum tolerable dose (MTD), Iv (Bolus) (female Swiss mice): 13.2 mg/kg
Bacteria load in blood [7]: 2.70%
Bacteria load in blood ([7]; listed as peptide 11): 2.7%
fold increase in antimicrobial activity compared to native laterocidine (peptide 1) ([7]; murine bloodstream infection model, 8 mg/kg): 8 fold

Compound: CC[C@H](C)[C@@H]1NC(=O)[C@@H](NC(=O)[C@H](Cc2c[nH]c3ccccc23)NC(=O)[C@@H](CCCN)NC(=O)CNC(=O)[C@H](CCCN)NC(=O)[C@@H](CCCN)NC(=O)[C@@H](Cc2c[nH]c3ccccc23)NC(=O)[C@@H](Cc2ccc(O)cc2)NC(=O)[C@@H](CO)NC(=O)c2ccc(Cl)cc2Cl)[C@@H](C)OC(=O)CNC(=O)CNC(=O)[C@H](CC(N)=O)NC1=O [Peptide 12] (X2-[dS][dY][dW][dOrn][Orn]G[dOrn]WTINGG; ester 9-C)
fold increase in MIC (loss of activity) against A. baumannii (A. baumannii): 4–8 fold

Compound: CCCCCCCCC(=O)N[C@H](CO)C(=O)N[C@H](Cc1ccc(O)cc1)C(=O)N[C@H](Cc1c[nH]c2ccccc12)C(=O)N[C@H](CCCN)C(=O)N[C@@H](CCCN)C(=O)NCC(=O)N[C@H](CCCN)C(=O)N[C@@H](Cc1c[nH]c2ccccc12)C(=O)N[C@H]1COC(=O)CNC(=O)CNC(=O)[C@H](CC(N)=O)NC(=O)[C@H]([C@@H](C)CC)NC1=O [Peptide 15] (Nonanoyl-[dS][dY][dW][dOrn][Orn]G[dOrn]WSINGG; ester 9-C)
MICs against A. baumannii (range over strains) (A. baumannii): 8 to 32 µg/mL
fold increase in MIC (loss of activity) against A. baumannii (A. baumannii): 2–8 fold
fold less activity against the two MDR strains of P. aeruginosa (P. aeruginosa): 8–16 fold

Compound: CC[C@H](C)CCCCC(=O)N[C@@H](CCN)C(=O)N[C@H](C(=O)N[C@@H](CCN)C(=O)N[C@H]1CCNC(=O)[C@H]([C@@H](C)O)NC(=O)[C@H](CCN)NC(=O)[C@H](CCN)NC(=O)[C@H](CC(C)C)NC(=O)[C@@H](Cc2ccccc2)NC(=O)[C@H](CCN)NC1=O)[C@@H](C)O [polymyxin B, reference compound] (HELM PEPTIDE1{[CC[C@H](C)CCCCC(=O)[*:2]].[Dab].T.[Dab].[Dab].[Dab].[dF].L.[Dab].[Dab].T}$PEPTIDE1,PEPTIDE1,5:R3-11:R2$$$V2.0; N-terminus assumed; bridges inferred)
MIC, P. aeruginosa PAO1 (P. aeruginosa PAO1 [2]): 0.5 µg/mL (≈ 0.415 µM)
MIC, P. aeruginosa PAO1R (P. aeruginosa PAO1R [3]): 16 µg/mL (≈ 13.3 µM)
time-kill outcome against P. aeruginosa PAO1R (P. aeruginosa PAO1R [5]): no viable bacteria detected at 8 × MIC on multiple occasions, including at 24 h
time-kill outcome against P. aeruginosa PAO1 (P. aeruginosa PAO1 [6]): no viable bacteria were detected at 1 h, rapid and significant regrowth subsequently occurred
cell viability of HK-2 cells ([8]; 0.01 mM): 74.8 ± 2.6%
cell viability of HK-2 cells ([8]; 0.1 mM): 6.4 ± 3.6%
maximum tolerable dose (MTD), Iv (Bolus) (female Swiss mice): 5 mg/kg

Second part, the compound after the results:

fold increase in MIC for two E. cloacae strains (E. cloacae): 2 fold
fold increase in MIC (loss of activity) against all strains / all species ([1]; compared with native laterocidine): no more than 1 fold
Compound: CCCCCCCCC(=O)N[C@H](CO)C(=O)N[C@H](Cc1ccc(O)cc1)C(=O)N[C@H](Cc1c[nH]c2ccccc12)C(=O)N[C@H](CCCN)C(=O)N[C@@H](CCCN)C(=O)NCC(=O)N[C@H](CCCN)C(=O)N[C@@H](Cc1c[nH]c2ccccc12)C(=O)N[C@@H]1C(=O)N[C@@H]([C@@H](C)CC)C(=O)N[C@@H](CC(N)=O)C(=O)NCC(=O)N[C@@H](C)C(=O)O[C@@H]1C [Peptide 24] (Nonanoyl-[dS][dY][dW][dOrn][Orn]G[dOrn]WTINGA; ester 9-C)

MICs against A. baumannii (range over strains) (A. baumannii; summary of Tables 1 and 2): > 32 µg/mL
Compound: CCCCCCCCC(=O)N[C@H](CO)C(=O)N[C@H](Cc1ccc(O)cc1)C(=O)N[C@H](C)C(=O)N[C@H](CCCN)C(=O)N[C@@H](CCCN)C(=O)NCC(=O)N[C@H](CCCN)C(=O)N[C@@H](Cc1c[nH]c2ccccc12)C(=O)N[C@@H]1C(=O)N[C@@H]([C@@H](C)CC)C(=O)N[C@@H](CC(N)=O)C(=O)NCC(=O)NCC(=O)O[C@@H]1C [Peptide 33] (Nonanoyl-[dS][dY][dA][dOrn][Orn]G[dOrn]WTINGG; ester 9-C)

MICs against A. baumannii (range over strains) (A. baumannii): ≥ 32 µg/mL
Compound: CCCCCCCCC(=O)N[C@H](CO)C(=O)N[C@H](C)C(=O)N[C@H](Cc1c[nH]c2ccccc12)C(=O)N[C@H](CCCN)C(=O)N[C@@H](CCCN)C(=O)NCC(=O)N[C@H](CCCN)C(=O)N[C@@H](Cc1c[nH]c2ccccc12)C(=O)N[C@@H]1C(=O)N[C@@H]([C@@H](C)CC)C(=O)N[C@@H](CC(N)=O)C(=O)NCC(=O)NCC(=O)O[C@@H]1C [Peptide 34] (Nonanoyl-[dS][dA][dW][dOrn][Orn]G[dOrn]WTINGG; ester 9-C)

MICs against A. baumannii (range over strains) (A. baumannii): ≥ 32 µg/mL
MICs against K. pneumoniae (range over strains) (K. pneumoniae): 2 to 32 µg/mL
Compound: CCCCCCCCC(=O)N[C@H](C)C(=O)N[C@H](Cc1ccc(O)cc1)C(=O)N[C@H](Cc1c[nH]c2ccccc12)C(=O)N[C@H](CCCN)C(=O)N[C@@H](CCCN)C(=O)NCC(=O)N[C@H](CCCN)C(=O)N[C@@H](Cc1c[nH]c2ccccc12)C(=O)N[C@@H]1C(=O)N[C@@H]([C@@H](C)CC)C(=O)N[C@@H](CC(N)=O)C(=O)NCC(=O)NCC(=O)O[C@@H]1C [Peptide 35] (Nonanoyl-[dA][dY][dW][dOrn][Orn]G[dOrn]WTINGG; ester 9-C)
